What is called IC50 is the concentration that inhibits the measured activity by half. Broadly, the Ki is the dissociation constant of the complex between target and ligand, obtained from inhibition or displacement.

From ChEMBL document CHEMBL1909046, “DrugMatrix in vitro pharmacology data” come the findings set out here.

One test deals with T1, Adenosine receptor A1 (Homo sapiens, UniProt P30542).
T1 sequence (P30542 whole entry): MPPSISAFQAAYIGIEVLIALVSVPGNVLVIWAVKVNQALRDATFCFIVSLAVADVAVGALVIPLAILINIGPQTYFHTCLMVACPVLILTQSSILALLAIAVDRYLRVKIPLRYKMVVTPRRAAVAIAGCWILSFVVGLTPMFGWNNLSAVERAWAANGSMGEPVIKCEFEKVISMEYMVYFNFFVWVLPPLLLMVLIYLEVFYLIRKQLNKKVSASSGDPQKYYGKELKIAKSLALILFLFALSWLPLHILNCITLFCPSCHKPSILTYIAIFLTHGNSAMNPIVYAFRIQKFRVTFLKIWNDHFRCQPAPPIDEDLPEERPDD
In kind it is cell membranes, CHO, Membrane. The settings on record: cho.

A further test addresses T2, Endothelin-1 receptor (Homo sapiens, UniProt P25101).
T2 sequence (P25101 whole entry): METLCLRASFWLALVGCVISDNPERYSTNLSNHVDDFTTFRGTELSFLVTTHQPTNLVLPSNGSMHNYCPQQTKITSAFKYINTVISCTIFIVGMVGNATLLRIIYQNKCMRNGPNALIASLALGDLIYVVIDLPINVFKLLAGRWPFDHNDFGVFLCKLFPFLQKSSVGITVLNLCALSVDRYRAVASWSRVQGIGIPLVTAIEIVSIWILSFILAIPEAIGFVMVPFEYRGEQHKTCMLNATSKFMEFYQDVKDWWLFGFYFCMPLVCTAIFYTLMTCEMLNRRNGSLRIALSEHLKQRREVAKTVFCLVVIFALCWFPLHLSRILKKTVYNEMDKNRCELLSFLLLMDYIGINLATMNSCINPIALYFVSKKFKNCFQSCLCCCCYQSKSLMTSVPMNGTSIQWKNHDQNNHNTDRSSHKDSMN
It counts as cell membranes, Membrane. Conditions: cho-k1.

Test [1] has as its target Sigma non-opioid intracellular receptor 1 (Homo sapiens, UniProt Q99720). As to the kind of experiment: DRUGMATRIX: Sigma1 radioligand binding (ligand: [3H] Haloperidol). It counts as cell membranes, Jurkat, Membrane. Conditions: Not Active = under 50% inhibition at 10 µM.
Test [2] addresses Delta-type opioid receptor (Homo sapiens, UniProt P41143). It counts as cell membranes, HEK293, Membrane. Conditions: hek293.
The target of another test is Substance-P receptor (Homo sapiens, UniProt P25103). It counts as cell membranes, CHO, Membrane. The settings on record: cho. Further: in other assays of this panel Not Active means under 50% inhibition at 10 µM.
Test [3] addresses T3, Receptor-type tyrosine-protein phosphatase C (Homo sapiens, UniProt P08575).
T3 sequence (P08575 whole entry): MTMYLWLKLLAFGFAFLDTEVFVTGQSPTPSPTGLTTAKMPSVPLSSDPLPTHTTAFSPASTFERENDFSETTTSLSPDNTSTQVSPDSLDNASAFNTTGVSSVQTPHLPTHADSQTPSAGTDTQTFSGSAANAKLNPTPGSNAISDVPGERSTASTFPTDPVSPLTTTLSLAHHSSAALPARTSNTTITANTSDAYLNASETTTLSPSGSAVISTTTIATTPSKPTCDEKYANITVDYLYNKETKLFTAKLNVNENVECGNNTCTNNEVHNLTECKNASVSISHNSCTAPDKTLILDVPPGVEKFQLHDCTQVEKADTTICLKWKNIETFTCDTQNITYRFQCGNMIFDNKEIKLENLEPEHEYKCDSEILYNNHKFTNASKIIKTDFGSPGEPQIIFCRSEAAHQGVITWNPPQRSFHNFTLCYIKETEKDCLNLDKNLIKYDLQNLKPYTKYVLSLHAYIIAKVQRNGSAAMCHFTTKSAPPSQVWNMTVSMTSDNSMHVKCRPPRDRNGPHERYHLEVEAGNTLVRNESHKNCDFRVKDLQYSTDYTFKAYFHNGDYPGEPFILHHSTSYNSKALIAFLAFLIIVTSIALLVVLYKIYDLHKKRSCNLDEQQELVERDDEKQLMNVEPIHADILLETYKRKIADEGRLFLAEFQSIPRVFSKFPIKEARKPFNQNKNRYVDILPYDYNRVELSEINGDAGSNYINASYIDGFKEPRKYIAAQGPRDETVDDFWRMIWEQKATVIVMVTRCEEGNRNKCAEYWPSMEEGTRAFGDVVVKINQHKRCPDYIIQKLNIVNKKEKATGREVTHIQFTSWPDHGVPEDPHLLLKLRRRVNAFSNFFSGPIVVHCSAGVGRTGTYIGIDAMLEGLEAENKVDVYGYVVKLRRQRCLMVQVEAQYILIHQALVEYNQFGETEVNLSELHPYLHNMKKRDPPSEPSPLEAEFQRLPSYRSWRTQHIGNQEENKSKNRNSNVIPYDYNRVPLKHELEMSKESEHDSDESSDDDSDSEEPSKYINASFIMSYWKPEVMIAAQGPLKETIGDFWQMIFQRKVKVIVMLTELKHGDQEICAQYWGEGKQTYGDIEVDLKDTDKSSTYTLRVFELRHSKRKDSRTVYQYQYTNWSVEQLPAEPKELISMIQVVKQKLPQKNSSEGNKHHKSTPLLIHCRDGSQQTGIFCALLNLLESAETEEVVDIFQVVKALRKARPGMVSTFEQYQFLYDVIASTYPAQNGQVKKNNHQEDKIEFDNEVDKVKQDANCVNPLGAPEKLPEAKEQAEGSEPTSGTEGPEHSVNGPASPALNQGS
Also on record: species or system Escherichia coli.

Delta-type opioid receptor, sequence (P41143 whole entry): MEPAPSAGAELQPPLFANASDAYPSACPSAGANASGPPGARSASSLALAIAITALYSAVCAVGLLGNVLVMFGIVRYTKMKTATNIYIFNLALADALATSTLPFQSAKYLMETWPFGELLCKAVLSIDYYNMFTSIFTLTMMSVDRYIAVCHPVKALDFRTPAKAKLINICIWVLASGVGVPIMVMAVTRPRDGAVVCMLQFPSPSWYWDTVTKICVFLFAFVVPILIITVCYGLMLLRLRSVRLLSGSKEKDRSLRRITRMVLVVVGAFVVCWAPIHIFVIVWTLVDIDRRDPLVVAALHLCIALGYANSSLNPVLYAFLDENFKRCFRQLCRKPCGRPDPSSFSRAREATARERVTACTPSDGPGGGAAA
Substance-P receptor, sequence (P25103 whole entry): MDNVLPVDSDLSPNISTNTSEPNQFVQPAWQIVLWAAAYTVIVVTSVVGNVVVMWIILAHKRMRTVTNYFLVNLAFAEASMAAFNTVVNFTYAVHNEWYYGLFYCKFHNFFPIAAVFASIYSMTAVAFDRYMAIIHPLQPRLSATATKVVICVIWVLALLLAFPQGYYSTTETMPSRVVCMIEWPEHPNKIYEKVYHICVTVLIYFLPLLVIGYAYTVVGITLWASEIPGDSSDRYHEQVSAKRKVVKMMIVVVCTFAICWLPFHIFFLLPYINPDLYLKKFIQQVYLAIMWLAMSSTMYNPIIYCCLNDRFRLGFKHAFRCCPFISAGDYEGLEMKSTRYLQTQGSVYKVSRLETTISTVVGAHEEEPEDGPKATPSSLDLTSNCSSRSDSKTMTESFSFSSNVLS
Sigma non-opioid intracellular receptor 1, sequence (Q99720 whole entry): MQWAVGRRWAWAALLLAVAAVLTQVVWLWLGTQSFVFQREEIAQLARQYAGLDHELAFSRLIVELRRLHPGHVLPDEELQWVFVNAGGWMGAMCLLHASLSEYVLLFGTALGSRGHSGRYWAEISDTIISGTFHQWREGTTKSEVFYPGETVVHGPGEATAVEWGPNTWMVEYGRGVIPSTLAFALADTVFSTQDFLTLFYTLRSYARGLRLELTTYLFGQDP

As to `CCCCCCCCNC(C)C(O)c1ccc(SC(C)C)cc1` (stereo unspecified) [SULOCTIDIL], the IC50 entry was “Not Active” at Adenosine receptor A1; “Not Active” against Endothelin-1 receptor; 0.117 µM in test [1] (read-out: IC50); “Not Active” in test [2]; “Not Active” against Substance-P receptor; “Not Active” in test [3]. In test [1] (read-out: Ki), the Ki was 0.0493 µM.
Regarding `O=c1[nH]c(=O)n(C2CCCO2)cc1F` (stereo unspecified) [TEGAFUR], the IC50 entry (against Adenosine receptor A1; against Endothelin-1 receptor; in test [1] (jurkat); in test [2]; on Substance-P receptor; in test [3]) was “Not Active” each time.
With `CC(=N)S` [THIOACETAMIDE], the concentration for half-maximal inhibition (IC50) entry (against Adenosine receptor A1; at Endothelin-1 receptor; in test [1] (jurkat); in test [2]; on Substance-P receptor; in test [3]) was “Not Active” in each case.
As for `Cc1ccc(C(=O)c2ccc(CC(=O)O)n2C)cc1` [TOLMETIN], the IC50 result (on Adenosine receptor A1; on Endothelin-1 receptor; in test [1] (jurkat); in test [2]; at Substance-P receptor; in test [3]) was “Not Active” throughout.
As to `CC(=O)OCC(COC(C)=O)OC(C)=O` [TRIACETIN], the IC50 result (against Adenosine receptor A1; on Endothelin-1 receptor; in test [1] (jurkat); in test [2]; against Substance-P receptor; in test [3]) was “Not Active” throughout.
For the compound `CN1CCN(CCCN2c3ccccc3Sc3ccc(C(F)(F)F)cc32)CC1` [TRIFLUOPERAZINE], the half-maximal inhibitory concentration (IC50) result (against Adenosine receptor A1; at Endothelin-1 receptor; in test [1] (jurkat); in test [2]; against Substance-P receptor; in test [3]) was “Not Active” throughout.
With TRANSPLATIN, the half-inhibitory concentration (IC50) entry (on Adenosine receptor A1; against Endothelin-1 receptor; in test [1] (jurkat); in test [2]; against Substance-P receptor; in test [3]) was “Not Active” in each case. In addition, the Ki result (at Adenosine receptor A1; on Endothelin-1 receptor; in test [1] (jurkat); in test [2]; on Substance-P receptor; in test [3]) was “Not Active” in each case.
On to ZIRCONIUM(IV) CHLORIDE, for which the half-maximal inhibitory concentration (IC50) entry (against Adenosine receptor A1; against Endothelin-1 receptor; in test [1] (jurkat); in test [2]; at Substance-P receptor; in test [3]) was “Not Active” throughout. Besides, the Ki entry (at Adenosine receptor A1; on Endothelin-1 receptor; in test [1] (jurkat); in test [2]; on Substance-P receptor; in test [3]) was “Not Active” each time.
